According to patent US9062041B2 (Bayer Intellectual Property GmbH, priority 2011, dated 2015):
pIC50: −log10 of the molar value.

Columns and labels:
Assay type in all cases: cell-based
[1] = target: EP4 subtype of the human PGE2 receptor (Homo sapiens, UniProt P35408); experiment: cAMP antagonism test on the human EP4 receptor (HTRF cAMP detection); settings: selectivity towards hEP4, IC50 measured by cAMP antagonism test
Outline: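 Cells expressing human EP4 preincubated 20 min at RT with compound (0.8 nM–16.5 μM), then stimulated with PGE2 (0.3 nM in 3× solution, with IBMX) 60 min at RT. After lysis, cAMP measured by HTRF competition (665/620 nm ratio); antagonism seen as rise in FRET signal.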

[2] = target: EP2 subtype of the human PGE2 receptor (Homo sapiens, UniProt P43116); experiment: cAMP antagonism test on the human EP2 receptor (HTRF cAMP detection); settings: hEP2 receptor, read-out: Antagonism hEP2 IC50
Outline: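 Cells expressing human EP2 preincubated 20 min at RT with compound (0.8 nM–16.5 μM), then stimulated 60 min with PGE2 (3× solution 1.5 nM) in PBS-IBMX. After 20 min lysis, cAMP measured by competitive HTRF with cAMP-d2 and Eu cryptate anti-cAMP antibody (665/620 nm ratio).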

[3] = target: T1, human PGD receptor (Homo sapiens, UniProt Q13258); experiment: cAMP antagonism test on the human prostaglandin D receptor (HTRF cAMP detection); settings: selectivity towards hDP, IC50 measured by cAMP antagonism test
T1 sequence (Q13258 1-359): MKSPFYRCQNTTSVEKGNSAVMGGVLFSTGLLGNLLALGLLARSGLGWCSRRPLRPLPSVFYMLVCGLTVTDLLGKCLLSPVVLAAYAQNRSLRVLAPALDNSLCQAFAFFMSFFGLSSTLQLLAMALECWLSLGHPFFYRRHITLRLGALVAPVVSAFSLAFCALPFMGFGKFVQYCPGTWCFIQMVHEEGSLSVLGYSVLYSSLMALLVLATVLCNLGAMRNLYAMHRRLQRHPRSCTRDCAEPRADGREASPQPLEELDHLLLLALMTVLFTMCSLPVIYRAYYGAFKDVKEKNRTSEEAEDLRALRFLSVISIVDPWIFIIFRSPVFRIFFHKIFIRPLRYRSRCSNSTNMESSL
Outline: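 Cells pre-mixed with cAMP-d2 were preincubated with compound (0.8 nM–16.5 μM) for 20 min at RT, then stimulated with 3× PGD2 solution (6 nM, in PBS-IBMX) for 30 min at RT. After lysis (20 min), HTRF read at 665/620 nm; antagonism seen as rise in FRET ratio.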

Chain of EP2 subtype of the human PGE2 receptor (P43116 whole entry): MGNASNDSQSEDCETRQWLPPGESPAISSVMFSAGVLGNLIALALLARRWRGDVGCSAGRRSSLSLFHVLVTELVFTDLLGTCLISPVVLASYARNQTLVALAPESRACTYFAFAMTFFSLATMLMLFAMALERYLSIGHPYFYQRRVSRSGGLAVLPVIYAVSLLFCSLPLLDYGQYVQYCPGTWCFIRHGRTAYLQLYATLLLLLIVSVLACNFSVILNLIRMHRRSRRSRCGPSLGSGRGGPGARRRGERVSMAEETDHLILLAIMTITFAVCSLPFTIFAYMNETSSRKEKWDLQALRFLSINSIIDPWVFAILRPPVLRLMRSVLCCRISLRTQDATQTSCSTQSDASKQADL
Chain of EP4 subtype of the human PGE2 receptor (P35408 whole entry): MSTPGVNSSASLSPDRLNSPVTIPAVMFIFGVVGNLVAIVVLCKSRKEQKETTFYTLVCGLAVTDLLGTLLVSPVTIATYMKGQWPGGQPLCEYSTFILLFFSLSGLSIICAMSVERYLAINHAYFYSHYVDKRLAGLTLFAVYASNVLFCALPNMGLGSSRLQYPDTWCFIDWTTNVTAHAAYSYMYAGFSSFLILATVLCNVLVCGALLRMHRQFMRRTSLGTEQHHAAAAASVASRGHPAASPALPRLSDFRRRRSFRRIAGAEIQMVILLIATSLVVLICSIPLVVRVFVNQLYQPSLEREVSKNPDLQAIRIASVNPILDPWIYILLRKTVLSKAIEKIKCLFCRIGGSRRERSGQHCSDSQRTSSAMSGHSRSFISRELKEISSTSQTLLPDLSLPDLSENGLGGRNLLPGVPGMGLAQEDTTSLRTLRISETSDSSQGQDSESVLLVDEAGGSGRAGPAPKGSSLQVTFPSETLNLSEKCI

| SMILES | Selectivity hEP2/hEP4 [1] | pIC50 [2] | Selectivity hEP2/hDP [3] |
| --- | --- | --- | --- |
| Cc1c(C(=O)NCCN2CCOCC2)ccc2nn(CC3CCN(C(=O)c4ccc(S(F)(F)(F)(F)F)cc4)CC3)cc12 [Example 60, 4-methyl-N-(2-morpholinoethyl)-2-({1-[4-(pentafluoro-λ^6-sulphanyl)benzoyl]-piperidin-4-yl}methyl)-2H-indazol-5-carboxamide] | xx (xx: 10-100) | 6.76 | xx (xx: 10-100) |
| COCCNC(=O)c1ccc2nn(CC3CCN(C(=O)c4ccc(Oc5cccnc5)cc4)CC3)cc2c1C [Example 343, N-(2-methoxyethyl)-4-methyl-2-({1-[4-(3-pyridyloxy)benzoyl]piperidin-4-yl}methyl)-2H-indazol-5-carboxamide] | xxx (xxx > 100) | 7.37 | xxx (xxx > 100) |
| COCCNC(=O)c1ccc2nn(CC3CN(C(=O)c4cc5cc(F)ccc5n4C)C3)cc2c1C [Example 170, 2-({1-[(5-fluoro-1-methyl-1H-indol-2-yl)carbonyl]azetidin-3-yl}methyl)-N-(2-methoxyethyl)-4-methyl-2H-indazol-5-carboxamide] | xxx (xxx > 100) | 8.37 | xxx (xxx > 100) |
| COCCNC(=O)c1ccc2nn(CC3CCN(C(=O)c4ccc(-c5ccc(OC)cn5)cc4)CC3)cc2c1C [Example 373, N-(2-methoxyethyl)-2-({1-[4-(5-methoxypyridin-2-yl)benzoyl]piperidin-4-yl}-methyl)-4-methyl-2H-indazol-5-carboxamide] | xxx (xxx > 100) | 7.39 | xxx (xxx > 100) |
| COCCNC(=O)c1ccc2nn(CC3CCN(C(=O)c4ccc(-c5ccc(Cl)cc5F)cc4)CC3)cc2c1C [Example 383, 2-({1-[(4′-chloro-2′-fluorobiphenyl-4-yl)carbonyl]piperidin-4-yl}methyl)-N-(2-methoxyethyl)-4-methyl-2H-indazol-5-carboxamide] | xxx (xxx > 100) | 8.24 | xxx (xxx > 100) |
| COCCNC(=O)c1cc2cn(CC3CN(C(=O)c4ccc(C5CC5)cc4)C3)nc2cc1C [Example 200, 2-{[1-(4-cyclopropylbenzoyl)azetidin-3-yl]methyl}-N-(2-methoxyethyl)-6-methyl-2H-indazol-5-carboxamide] | xxx (xxx > 100) | 7.82 | xxx (xxx > 100) |
| Cc1c(C(=O)NCC(F)(F)F)ccc2nn(CC3CCN(C(=O)c4ccc(Oc5ccc(F)cc5F)cc4)CC3)cc12 [Example 313, 2-({1-[4-(2,4-difluorophenoxy)benzoyl]piperidin-4-yl}methyl)-4-methyl-N-(2,2,2-trifluoroethyl)-2H-indazol-5-carboxamide] | xxx (xxx > 100) | 7.05 | xxx (xxx > 100) |
| Cc1c(C(=O)NCCN2CCOCC2)ccc2nn(CC3CCN(C(=O)c4ccc(Cl)cc4)CC3)cc12 [Example 62, 2-{[1-(4-chlorobenzoyl)piperidin-4-yl]methyl}-4-methyl-N-(2-morpholinoethyl)-2H-indazol-5-carboxamide] | xx (xx: 10-100) | 6.17 | xx (xx: 10-100) |
| COCCNC(=O)c1ccc2nn(CC3CCN(C(=O)c4nc(-c5ccccc5)no4)CC3)cc2c1C [Example 352, N-(2-methoxyethyl)-4-methyl-2-({1-[(3-phenyl-1,2,4-oxadiazol-5-yl)carbonyl]-piperidin-4-yl}methyl)-2H-indazol-5-carboxamide] | xxx (xxx > 100) | 7.66 | xxx (xxx > 100) |
| COCCNC(=O)c1cc2cn(CC3CN(C(=O)c4ccc(SC(F)(F)F)cc4)C3)nc2cc1C [Example 180, N-(2-methoxyethyl)-6-methyl-2-[(1-{4-[(trifluoromethyl)sulphanyl]benzoyl}azetidin-3-yl)methyl]-2H-indazol-5-carboxamide] | xxx (xxx > 100) | 7.76 | xxx (xxx > 100) |
| Cc1c(C(=O)NCC(F)(F)F)ccc2nn(CC3CCN(C(=O)c4ccc(Br)cc4)CC3)cc12 [Example 316, 2-{[1-(4-bromobenzoyl)piperidin-4-yl]methyl}-4-methyl-N-(2,2,2-trifluoro-ethyl)-2H-indazol-5-carboxamide] | xxx (xxx > 100) | 7.10 | xxx (xxx > 100) |
| Cc1c(C(=O)NCC2COCCO2)ccc2nn(CC3CCN(C(=O)c4ccc(Cl)cc4)CC3)cc12 (single isomer, unassigned) [Example 415, (S or R)-2-{[1-(4-chlorobenzoyl)piperidin-4-yl]methyl}-N-(1,4-dioxan-2-ylmethyl)-4-methyl-2H-indazol-5-carboxamide] | xxx (xxx > 100) | 7.67 | xxx (xxx > 100) |
| Cc1c(C(=O)NCCOC(C)C)ccc2nn(CC3CCN(C(=O)c4ccc(Cl)cc4)CC3)cc12 [Example 96, 2-{[1-(4-chlorobenzoyl)piperidin-4-yl]methyl}-N-(2-isopropoxyethyl)-4-methyl-2H-indazol-5-carboxamide] | xxx (xxx > 100) | 8.03 | xxx (xxx > 100) |
| Cc1c(C(=O)NCCS(C)(=O)=O)ccc2nn(CC3CCN(C(=O)c4ccc(Oc5ccc(C(F)(F)F)nc5)cc4)CC3)cc12 [Example 397, N-(2-mesylethyl)-4-methyl-2-{[1-(4-{[6-(trifluoromethyl)pyridin-3-yl]oxy}-benzoyl)piperidin-4-yl]methyl}-2H-indazol-5-carboxamide] | xxx (xxx > 100) | 7.90 | xxx (xxx > 100) |
| Cc1ccc(C(=O)N2CC(Cn3cc4c(C)c(C(=O)NCCOCC5CC5)ccc4n3)C2)cc1 [Example 151, N-[2-(cyclopropylmethoxy)ethyl]-4-methyl-2-{[1-(4-methylbenzoyl)azetidin-3-yl]methyl}-2H-indazol-5-carboxamide] | xxx (xxx > 100) | 7.31 | xxx (xxx > 100) |
| COCCNC(=O)c1ccc2nn(CC3CN(C(=O)c4ccc5cc(OC)ccc5c4)C3)cc2c1C [Example 176, N-(2-methoxyethyl)-2-{[1-(6-methoxy-2-naphthoyl)azetidin-3-yl]methyl}-4-methyl-2H-indazol-5-carboxamide] | xxx (xxx > 100) | 8.11 | xxx (xxx > 100) |
| COCCNC(=O)c1ccc2nn(CC3CCN(C(=O)c4ccc(-c5ccc(C(C)(C)C#N)cc5)cc4)CC3)cc2c1C [Example 372, 2-[(1-{[4′-(1-cyano-1-methylethyl)biphenyl-4-yl]carbonyl}piperidin-4-yl)-methyl]-N-(2-methoxyethyl)-4-methyl-2H-indazol-5-carboxamide] | xxx (xxx > 100) | 8.14 | xxx (xxx > 100) |
| [2H]C([2H])([2H])OC([2H])([2H])C([2H])([2H])NC(=O)c1ccc2nn(CC3CCN(C(=O)c4ccc(Cl)cc4)CC3)cc2c1C [Example 115, 2-{[1-(4-chlorobenzoyl)piperidin-4-yl]methyl}-N-(2-[^2H3]methoxy[^2H4]ethyl)-4-methyl-2H-indazol-5-carboxamide] | xxx (xxx > 100) | 8.04 | xxx (xxx > 100) |
| CCOc1c(C(=O)NCCOC)ccc2nn(CC3CN(C(=O)c4ccc(S(F)(F)(F)(F)F)cc4)C3)cc12 [Example 277, 4-ethoxy-N-(2-methoxyethyl)-2-({1-[4-(pentafluoro-λ^6-sulphanyl)benzoyl]-azetidin-3-yl}methyl)-2H-indazol-5-carboxamide] | xxx (xxx > 100) | 7.32 | xxx (xxx > 100) |
| COCCNC(=O)c1ccc2nn(CC3CCN(C(=O)c4ccc(Cl)cc4)CC3)cc2c1OCC(F)(F)F [Example 232, 2-{[1-(4-chlorobenzoyl)piperidin-4-yl]methyl}-N-(2-methoxyethyl)-4-(2,2,2-trifluoroethoxy)-2H-indazol-5-carboxamide] | xxx (xxx > 100) | 7.42 | xxx (xxx > 100) |
| Cc1c(C(=O)NCCC(C)(C)O)ccc2nn(CC3CCN(C(=O)c4ccc(Cl)cc4)CC3)cc12 [Example 399, 2-{[1-(4-chlorobenzoyl)piperidin-4-yl]methyl}-N-(3-hydroxy-3-methylbutyl)-4-methyl-2H-indazol-5-carboxamide] | xx (xx: 10-100) | 6.23 | xx (xx: 10-100) |
